Laboratory results reported in PubChem BioAssay (NCI).
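Exposure lasted 48 hours, with cells grown in 96-well plates and compounds tested at five concentrations. Abbreviation: GI50, concentration required for 50% inhibition of growth. TGI: concentration producing complete growth inhibition.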

Legend:
Experiment in all cases: NCI-60 cell line screen, 48 h
OVCAR-3 ovarian = tested on: OVCAR-3 ovarian
MALME-3M melanoma = tested on: MALME-3M melanoma
OVCAR-5 ovarian = tested on: OVCAR-5 ovarian
UACC-62 melanoma = tested on: UACC-62 melanoma
IGROV1 ovarian = tested on: IGROV1 ovarian
A498 renal = tested on: A498 renal
SF-539 CNS = tested on: SF-539 CNS
SK-OV-3 ovarian = tested on: SK-OV-3 ovarian
NCI-H522 lung = tested on: NCI-H522 lung
OVCAR-4 ovarian = tested on: OVCAR-4 ovarian

| Compound | TGI (OVCAR-3 ovarian) | TGI (MALME-3M melanoma) | TGI (OVCAR-5 ovarian) | TGI (UACC-62 melanoma) | TGI (IGROV1 ovarian) | TGI (A498 renal) | TGI (SF-539 CNS) | TGI (SK-OV-3 ovarian) | TGI (NCI-H522 lung) | TGI (OVCAR-4 ovarian) | GI50 (OVCAR-3 ovarian) | GI50 (NCI-H522 lung) | GI50 (OVCAR-5 ovarian) | GI50 (UACC-62 melanoma) | GI50 (SF-539 CNS) | GI50 (SK-OV-3 ovarian) |
| --- | --- | --- | --- | --- | --- | --- | --- | --- | --- | --- | --- | --- | --- | --- | --- | --- |
| S=C(c1c[nH]c2ccccc12)N1CCN(c2ccccc2)CC1 | > 100 µM | 87.4 µM | > 100 µM | > 100 µM | > 100 µM | > 100 µM | > 100 µM | > 100 µM |  |  |  |  |  |  |  |  |
| CCOC(=O)C(C)(C)/C=C\C(Cl)=C(Cl)Cl | > 100 µM | > 100 µM | > 100 µM | > 100 µM | > 100 µM |  | > 100 µM | > 100 µM | > 100 µM |  |  |  |  |  |  |  |
| Fc1cc(-c2ncc(Cl)cc2Cl)c2cccccc1-2 | > 100 µM | > 100 µM | > 100 µM | > 100 µM | > 100 µM |  | > 100 µM | > 100 µM | > 100 µM |  |  |  |  |  |  |  |
| COc1cc(C(=O)Nc2c3ccccc3nc3ccccc23)cc(OC)c1OC | > 100 µM | > 100 µM | > 100 µM | > 100 µM | > 100 µM |  | > 100 µM | > 100 µM | > 100 µM | > 100 µM |  |  |  |  |  |  |
| O=c1[nH]c(Nc2cccc(Br)c2)nc2nc[nH]c12 | > 100 µM | > 100 µM | > 100 µM | > 100 µM | > 100 µM |  |  | > 100 µM | > 100 µM | > 100 µM |  |  |  |  |  |  |
| COc1cc(/C=C2\CN(S(=O)(=O)c3ccc(C)cc3)C/C(=C\c3cc(CN4CCCCC4)c(O)c(OC)c3)C2=O)cc(CN2CCCCC2)c1O | 3.59 µM |  | 3.4 µM | 3.32 µM |  |  | 3.31 µM | 3.6 µM | 1.32 µM |  | 1.85 µM | 0.306 µM | 1.88 µM | 1.63 µM | 1.74 µM | 1.91 µM |
| O=C(CCc1ccccc1CO)NCCc1ccccc1 | > 100 µM |  | > 100 µM | > 100 µM | > 100 µM | > 100 µM | > 100 µM | > 100 µM | > 100 µM | > 100 µM |  |  |  |  |  |  |
| CN(C)CCNC(=O)c1ccc(NCCCN(C)CCCNc2ccc(C(=O)NCCN(C)C)c3[nH]c4ccc([N+](=O)[O-])cc4c(=O)c23)c2c(=O)c3cc([N+](=O)[O-])ccc3[nH]c12 | 1.94 µM | 1.37 µM | 1.71 µM | 0.622 µM | 0.389 µM | 0.537 µM |  | 1.35 µM |  | 1.55 µM |  |  |  |  |  |  |
| CC1=C(C(=O)NCC(C)O)CC(C(=O)NCC(C)O)=C(C)N1 (stereo unspecified) | > 100 µM |  | > 100 µM | > 100 µM | > 100 µM |  | > 100 µM | > 100 µM | > 100 µM | > 100 µM |  |  |  |  |  |  |
| O=C1/C(=C/c2cccs2)NC(=S)N1CN1CCOCC1 | > 100 µM |  | > 100 µM | > 100 µM | > 100 µM | > 100 µM |  | > 100 µM |  |  |  |  |  |  |  |  |
| O[C@H]1[C@H](O)[C@H](O)CN2CCC[C@@H](O)[C@H]12 | > 100 µM |  | > 100 µM | > 100 µM | > 100 µM | > 100 µM | > 100 µM | > 100 µM | > 100 µM | > 100 µM |  |  |  |  |  |  |
| CC1(C)C[C@H](O)[C@H](O)[C@]23C(=O)O[C@H](O)[C@H]2C(C=O)=CC[C@@H]13 | > 100 µM | > 100 µM |  | > 100 µM | > 100 µM |  | > 100 µM |  | > 100 µM |  |  |  |  |  |  |  |
| Cc1ccc(/C=N/NC2=NCCN2)s1 | > 100 µM | > 100 µM | > 100 µM | > 100 µM | > 100 µM |  | > 100 µM | > 100 µM | > 100 µM | > 100 µM |  |  |  |  |  |  |
| COc1ccc(C2SCC(=O)N2NC(=O)C(C)Oc2ccccc2Cl)cc1 (stereo unspecified) |  |  | > 100 µM | > 100 µM | > 100 µM | 92.2 µM | > 100 µM |  | > 100 µM | > 100 µM |  |  |  |  |  |  |
| CCOC(=O)c1cc(=O)oc2c1N(C)c1ncccc1N2 | > 100 µM |  | > 100 µM | > 100 µM |  | > 100 µM |  | > 100 µM |  | > 100 µM |  |  |  |  |  |  |
| O=C(O)c1cc(O)c2c(c1)Cc1cccc(O)c1C2=O | 36.9 µM | 38.1 µM | > 100 µM | 36.8 µM |  | > 100 µM |  | > 100 µM |  | > 100 µM |  |  |  |  |  |  |
| COc1cc2c(cc1OC)C(Cc1ccccc1CCCl)=NCC2 | > 100 µM |  | > 100 µM | > 100 µM | > 100 µM | > 100 µM | 48.6 µM | > 100 µM | > 100 µM | > 100 µM |  |  |  |  |  |  |
| COc1ccc(CCc2ccc(O)c(C(=O)O)c2)cc1OC | > 100 µM | > 100 µM | > 100 µM | > 100 µM | > 100 µM |  | > 100 µM | > 100 µM | > 100 µM | > 100 µM |  |  |  |  |  |  |
